Data on 23 molecules can be found in ChEMBL document CHEMBL3272105, “Quantitative structure-activity studies on monoamine oxidase inhibitors” (J Med Chem, 1976).

For orientation: logP means a log measure of how a compound divides between an organic and an aqueous phase.

Each structure is given as a SMILES string.

The test system of data set [1] is Rattus norvegicus. In words: Ratio of compound to iproniazid for in vivo inhibition of monoamine oxidase in rat brain assessed as increase in serotonin production after 16 hrs. In kind it is functional.
Data set [2] can be described thus: Octanol-water partition coefficient, log P of the compound. Type of data set: physicochemical.

For `CC(C)NNC(=O)c1ccccc1O`, the Ratio in data set [1] is reported as 0. The logP in data set [2] (read-out: logP) came to 1.46.

Take `Cc1noc(C)c1C(=O)NNC(C)C`: in data set [1], the Ratio worked out at 0. The logP in data set [2] (read-out: logP) is 1.2.

As to `CC(C)NNC(=O)c1ccc(N)cc1`, in data set [1], the Ratio is recorded as 15. Besides, the logP in data set [2] (read-out: logP) worked out at 0.9.

As for `CC(C)NNC(=O)c1cccs1`, the Ratio in data set [1] is reported as 198. Moreover, the logP in data set [2] (read-out: logP) was 1.61.

For the molecule `Cc1ncc(C(=O)NNC(C)C)c(C)n1`, the Ratio in data set [1] was 0. In addition, the logP in data set [2] (read-out: logP) was -0.4.

Regarding `CC(C)NNC(=O)c1ccc(C(C)C)cc1`, the Ratio in data set [1] is reported as 97. In addition, in data set [2] (read-out: logP), the logP stood at 3.66.

For `CC(C)NNC(=O)c1cccnc1`, in data set [1], the Ratio came to 111. For the same molecule, the logP in data set [2] (read-out: logP) was 0.32.

On to `CC(C)NNC(=O)c1cccc(Cl)c1`, for which the Ratio in data set [1] is reported as 123. The logP in data set [2] (read-out: logP) amounted to 2.84.

Turning to `CC(C)NNC(=O)c1c[nH]nn1`, the Ratio in data set [1] is 38.

For the molecule `CC(C)NNC(=O)c1cc[nH]n1`, the Ratio in data set [1] is 84.

Regarding `CC(C)NNC(=O)c1ccncc1` [IPRONIAZID], in data set [1], the Ratio is 100. In data set [2], this molecule returned a logP of 0.32.

`CC(C)NNC(=O)c1ccccc1N`: in data set [1], the Ratio is on record as 60. In data set [2] (read-out: logP), the logP came out at 0.9.

Turning to `CC(C)NNC(=O)c1ccc(Cl)cc1`, the Ratio in data set [1] came out at 134. In addition, the logP in data set [2] (read-out: logP) was 2.84.

With `Cc1ncsc1C(=O)NNC(C)C`, in data set [1], the Ratio is recorded as 38. Besides, the logP in data set [2] (read-out: logP) was determined as 0.44.

`CC(C)NNC(=O)c1cccc([N+](=O)[O-])c1`: the Ratio in data set [1] came to 125. Also, the logP in data set [2] (read-out: logP) worked out at 1.85.

In the case of `CC(C)NNC(=O)c1cccnn1`, the Ratio in data set [1] stood at 0.

Turning to `Cc1ccc(C(=O)NNC(C)C)cc1C`, in data set [1], the Ratio is 76. The logP in data set [2] (read-out: logP) amounted to 3.25.

Turning to `CC(C)NNC(=O)c1ccco1`, in data set [1], the Ratio was 156.

Turning to `CC(C)NNC(=O)c1ccccn1`, the Ratio in data set [1] came out at 191. In addition, the logP in data set [2] (read-out: logP) turned out to be 0.32.

Regarding `COc1ccc(C(=O)NNC(C)C)cc1`, the Ratio in data set [1] is 63. The logP in data set [2] (read-out: logP) stood at 2.11.

With `CC(C)NNC(=O)c1ccsc1`, the Ratio in data set [1] is 192. Further, the logP in data set [2] (read-out: logP) was determined as 1.61.

For the molecule `CC(C)NNC(=O)c1cnccn1`, the Ratio in data set [1] stood at 152.

With `CC(C)NNC(=O)c1ccc(O)cc1`, the Ratio in data set [1] was 11. In data set [2] (read-out: logP), the logP is 1.46.
